From ChEMBL document CHEMBL4627316, “Design and synthesis of potent PAR-1 antagonists based on vorapaxar” (Bioorg Med Chem Lett, 2020) come the findings set out here.

Data set [1] has as its target T1, Proteinase-activated receptor 1 (Homo sapiens) (UniProt P25116).
T1 sequence (whole entry): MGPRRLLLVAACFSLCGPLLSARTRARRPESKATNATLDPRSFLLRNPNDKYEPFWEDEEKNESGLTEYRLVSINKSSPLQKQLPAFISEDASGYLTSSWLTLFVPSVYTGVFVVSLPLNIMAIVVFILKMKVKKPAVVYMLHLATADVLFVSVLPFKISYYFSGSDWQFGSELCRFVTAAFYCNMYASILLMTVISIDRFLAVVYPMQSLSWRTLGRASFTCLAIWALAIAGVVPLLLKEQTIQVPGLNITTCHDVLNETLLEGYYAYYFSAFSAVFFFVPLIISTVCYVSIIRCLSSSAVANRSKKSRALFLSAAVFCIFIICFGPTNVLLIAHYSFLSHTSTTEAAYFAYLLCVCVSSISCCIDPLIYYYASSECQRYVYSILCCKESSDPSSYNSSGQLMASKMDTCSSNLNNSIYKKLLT
Put plainly: Antagonist activity at human PAR1 expressed in KNRK cells assessed as inhibition of agonist-induced intracellular calcium mobilization at 10^-7 M by fluorimetric assay relative to control. The data set is classed as functional, cell-based. In general terms: Calcium assays in cells follow changes in intracellular calcium, usually with a dye or a luminescent sensor.

The target of data set [2] is T1, Proteinase-activated receptor 1 (Homo sapiens). Put plainly: Antagonist activity at human PAR1 expressed in KNRK cells assessed as inhibition of agonist-induced intracellular calcium mobilization at 10^-6 M by fluorimetric assay relative to control. It counts as functional, cell-based.
For data set [3] the target is unchanged. In words: Antagonist activity at human PAR1 expressed in KNRK cells assessed as inhibition of agonist-induced intracellular calcium mobilization at 10^-5 M by fluorimetric assay relative to control. The data set is classed as functional, cell-based.
In data set [4] the target is T2, Proteinase-activated receptor 1 (Homo sapiens, UniProt P25116).
T2 sequence (P25116 whole entry): T1 sequence (whole entry)
Put plainly: Antagonist activity at human PAR1 expressed in KNRK cells assessed as inhibition of agonist-induced intracellular calcium mobilization by fluorimetric assay. It counts as functional, cell-based.

Data set [5] can be described thus: Half life in Sprague-Dawley rat at 5 mg/kg, po or 1 mg/kg, iv. To be noted: in vivo. The data set is classed as ADME, organism-based.
Data set [6] can be described thus: AUC (0 to infinity) in Sprague-Dawley rat at 5 mg/kg, po or 1 mg/kg, iv. It counts as ADME, organism-based. To be noted: in vivo.
The nature of data set [7]: Cmax in Sprague-Dawley rat at 5 mg/kg, po or 1 mg/kg, iv. The data set is classed as ADME, organism-based. The settings on record: in vivo.
Data set [8] is described as follows: Oral bioavailability in Sprague-Dawley rat at 5 mg/kg. It counts as ADME, organism-based. The settings on record: in vivo.
Data set [9] is described as follows: Ratio of drug concentration in brain to plasma in Sprague-Dawley rat at 5 mg/kg, po measured at 8 hrs. It counts as ADME, organism-based. The settings on record: read-out: BPR.

One may read the inhibition as the drop in the measured response relative to a control, in per cent. Usually IC50 stands for the point on the concentration scale where inhibition reaches its midpoint. In general, half-life refers to how long it takes for the measured level to halve. A higher half-life goes with slow loss. As a reminder, the AUC(0-inf) is total exposure, with the tail of the curve extrapolated. As usually defined, the Cmax is the maximum level reached in the sampled fluid or tissue. One may read the bioavailability as dose-corrected exposure relative to a reference, in per cent. The low end stands for poor availability, the high end for good availability. Consider `C[C@H]1OC(=O)[C@]2(NCC(=O)O)C[C@@H]3CCCC[C@H]3[C@H](/C=C/c3ccc(-c4cccc(F)c4)cn3)[C@H]12`, for which the inhibition in [1] stood at 23%; in [2], 61%; in [3], 100%. For the same compound, in [4], the IC50 worked out at 1100 nM. Besides, the half-life in [5] is 2.9 h. The compound further gave an area under the curve AUC(0-inf) in [6] of 5000 ng·h/mL. This compound also had a Cmax in data set [7] of 1140 ng/mL. In addition, the bioavailability in data set [8] came out at 70%. For the same compound, the Kp at 8 h in data set [9] amounted to 0.68.
Consider `C[C@H]1OC(=O)[C@@H]2C[C@@H]3C[C@H](NCC#N)CC[C@H]3[C@H](/C=C/c3ccc(-c4cccc(F)c4)cn3)[C@H]12`, for which the inhibition in data set [1] was found to be 44%; in [2], 71%; in data set [3], 99%. In addition, the IC50 in data set [4] is 180 nM. The compound further had a half-life in data set [5] of 6.4 h. Besides, in [6], the AUC(0-inf) worked out at 6390 ng·h/mL. Also, the Cmax in data set [7] worked out at 580 ng/mL. For the same compound, in data set [8], the bioavailability was found to be 98%. For the same compound, the Kp at 8 h in [9] amounted to 0.38.
With `CCOC(=O)CN[C@@]12C[C@@H]3CCCC[C@H]3[C@H](/C=C/c3ccc(-c4cccc(F)c4)cn3)[C@@H]1[C@@H](C)OC2=O`, the inhibition is -5% in data set [1], 81% in [2] and 101% in data set [3].
Turning to `Cc1ccnc(N[C@@H]2CC[C@@H]3[C@@H](C2)C[C@H]2C(=O)O[C@H](C)[C@H]2[C@H]3/C=C/c2ccc(-c3cccc(F)c3)cn2)n1`, the values for the inhibition in data set [1], in data set [2] and in [3] were 20%, 98% and 101%, respectively. Also, the IC50 in [4] was 610 nM. Besides, the half-life in [5] is 6.7 h. In addition, the AUC(0-inf) in data set [6] turned out to be 860 ng·h/mL. Besides, the peak level in data set [7] (Cmax) was 110 ng/mL. For the same compound, the bioavailability in data set [8] worked out at 23%. In addition, the Kp at 8 h in data set [9] is 1.13.
Regarding `C[C@H]1OC(=O)[C@@H]2C[C@@H]3C[C@H](Nc4nc5ccccc5o4)CC[C@H]3[C@H](/C=C/c3ccc(-c4cccc(F)c4)cn3)[C@H]12`, the inhibition in data set [1] was found to be 3%; in data set [2], 28%; in [3], 81%.
`CCOC(=O)N[C@@H]1CC[C@@H]2[C@@H](C1)C[C@H]1C(=O)O[C@H](C)[C@H]1[C@H]2/C=C/c1ccc(-c2ccccn2)cc1`: the values for the inhibition in data set [1], in [2] and in data set [3] were 5%, 40% and 66%, respectively. Also, the IC50 in data set [4] is 550 nM. Further, the half-life in [5] is 5 h. In addition, the AUC(0-inf) in [6] amounted to 7100 ng·h/mL. This compound also had a Cmax in data set [7] of 710 ng/mL. Besides, in [8], the bioavailability is 44%. For the same compound, in data set [9], the Kp at 8 h was found to be 0.54.
On to `CCOC(=O)N[C@@H]1CC[C@@H]2[C@@H](C1)C[C@H]1C(=O)O[C@H](C)[C@H]1[C@H]2/C=C/c1ccc(-c2cccc(F)c2)cn1` [VORAPAXAR], for which the figures for the inhibition in data set [1], in data set [2] and in data set [3] were 25%, 99% and 101%, respectively. Further, in [4], the IC50 stood at 250 nM. For the same compound, the half-life in [5] is 4 h. Also, the AUC(0-inf) in data set [6] was 3500 ng·h/mL. In data set [7], this compound returned a Cmax of 440 ng/mL. The compound further came in with a bioavailability in data set [8] of 94%. Besides, in data set [9], the Kp at 8 h stood at 1.08.
With `C[C@H]1OC(=O)[C@]2(NCC#N)C[C@@H]3CCCC[C@H]3[C@H](/C=C/c3ccc(-c4cccc(F)c4)cn3)[C@H]12`, the inhibition in [1] is -4%; in data set [2], 92%; in data set [3] it was 99%. Also, the IC50 in data set [4] was determined as 760 nM. In addition, in data set [5], the half-life was 8.5 h. Also, in [6], the AUC(0-inf) was 5140 ng·h/mL. Also, in [7], the concentration peaked (Cmax) at 2310 ng/mL. This compound had a bioavailability in data set [8] of 34%. Also, in data set [9], the Kp at 8 h was found to be 0.35.
Consider `CCOC(=O)N[C@@H]1CC[C@@H]2[C@@H](C1)C[C@H]1C(=O)O[C@H](C)[C@H]1[C@H]2/C=C/c1ccc(-c2cccc(F)c2)cc1`, for which the inhibition is -7% in data set [1], 26% in data set [2] and 42% in data set [3].
For `C[C@H]1OC(=O)[C@@H]2C[C@@H]3C[C@H](NCC(=O)O)CC[C@H]3[C@H](/C=C/c3ccc(-c4cccc(F)c4)cn3)[C@H]12`, the inhibition in data set [1] came to 13%; in data set [2], 34%; in [3], 48%.
